# Paper PMC3093745 (ACS Medicinal Chemistry Letters, 2011)
# pIC50: −log10 of the molar value.
# Assays:
# [1] = target: HDAC1 (Homo sapiens, UniProt Q13547); assay: HDAC1 in vitro homogeneous fluorogenic deacetylase assay; format: biochemical; conditions: read-out: IC50 HDAC1; SD in parentheses; duplicate; substrate MAZ1600 21 µM
# [2] = target: HDAC2 (Homo sapiens, UniProt Q92769); assay: HDAC2 in vitro homogeneous fluorogenic deacetylase assay; format: biochemical; conditions: read-out: IC50 HDAC2; SD in parentheses; duplicate; substrate MAZ1600 22 µM
# [3] = target: HDAC3 (Homo sapiens, UniProt O15379); assay: HDAC3 in vitro homogeneous fluorogenic deacetylase assay; format: biochemical; conditions: read-out: IC50 HDAC3; SD in parentheses; duplicate; substrate MAZ1600 9 µM
# [4] = target: T1, HDAC6 (Homo sapiens, UniProt Q9UBN7); assay: HDAC6 in vitro homogeneous fluorogenic deacetylase assay; format: biochemical; conditions: read-out: IC50 HDAC6; SD in parentheses; duplicate; substrate MAZ1600 9 µM
# T1 sequence (Q9UBN7 1-1215): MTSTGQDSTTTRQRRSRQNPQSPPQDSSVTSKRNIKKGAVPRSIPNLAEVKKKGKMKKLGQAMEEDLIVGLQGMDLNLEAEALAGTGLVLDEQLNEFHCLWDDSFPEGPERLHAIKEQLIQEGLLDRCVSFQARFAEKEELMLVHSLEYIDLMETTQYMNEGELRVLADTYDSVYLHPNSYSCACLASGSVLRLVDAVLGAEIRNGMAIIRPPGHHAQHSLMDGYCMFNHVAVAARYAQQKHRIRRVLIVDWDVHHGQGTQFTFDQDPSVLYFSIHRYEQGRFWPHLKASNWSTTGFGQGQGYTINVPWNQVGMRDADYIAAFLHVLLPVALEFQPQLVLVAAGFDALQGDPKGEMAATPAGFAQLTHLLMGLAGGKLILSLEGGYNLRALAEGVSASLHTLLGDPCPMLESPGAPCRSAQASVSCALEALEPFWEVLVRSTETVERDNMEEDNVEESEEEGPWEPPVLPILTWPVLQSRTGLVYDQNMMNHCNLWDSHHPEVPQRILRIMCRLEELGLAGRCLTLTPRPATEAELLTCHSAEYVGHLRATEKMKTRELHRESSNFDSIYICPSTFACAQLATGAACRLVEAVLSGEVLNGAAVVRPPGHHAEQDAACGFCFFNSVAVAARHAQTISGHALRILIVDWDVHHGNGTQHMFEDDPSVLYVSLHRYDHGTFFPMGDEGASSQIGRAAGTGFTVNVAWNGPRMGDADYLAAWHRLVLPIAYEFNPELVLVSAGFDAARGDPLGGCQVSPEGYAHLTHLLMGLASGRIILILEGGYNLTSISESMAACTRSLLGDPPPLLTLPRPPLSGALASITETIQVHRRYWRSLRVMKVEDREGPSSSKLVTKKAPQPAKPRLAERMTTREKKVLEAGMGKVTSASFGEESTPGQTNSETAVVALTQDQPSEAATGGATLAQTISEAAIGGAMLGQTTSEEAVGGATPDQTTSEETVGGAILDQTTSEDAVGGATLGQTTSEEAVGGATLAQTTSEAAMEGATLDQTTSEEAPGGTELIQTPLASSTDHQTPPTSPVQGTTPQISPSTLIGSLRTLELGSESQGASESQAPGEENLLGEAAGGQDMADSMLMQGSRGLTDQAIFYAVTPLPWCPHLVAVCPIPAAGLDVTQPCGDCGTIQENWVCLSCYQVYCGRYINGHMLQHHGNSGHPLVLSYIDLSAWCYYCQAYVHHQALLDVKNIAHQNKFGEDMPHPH
# [5] = test system: MCF7 cells; assay: Propidium iodide staining, cell cycle and cell death in MCF7 cells; format: cell-based; conditions: 1 µM, 48 hours, PI staining
# Chain of HDAC3 (O15379 whole entry): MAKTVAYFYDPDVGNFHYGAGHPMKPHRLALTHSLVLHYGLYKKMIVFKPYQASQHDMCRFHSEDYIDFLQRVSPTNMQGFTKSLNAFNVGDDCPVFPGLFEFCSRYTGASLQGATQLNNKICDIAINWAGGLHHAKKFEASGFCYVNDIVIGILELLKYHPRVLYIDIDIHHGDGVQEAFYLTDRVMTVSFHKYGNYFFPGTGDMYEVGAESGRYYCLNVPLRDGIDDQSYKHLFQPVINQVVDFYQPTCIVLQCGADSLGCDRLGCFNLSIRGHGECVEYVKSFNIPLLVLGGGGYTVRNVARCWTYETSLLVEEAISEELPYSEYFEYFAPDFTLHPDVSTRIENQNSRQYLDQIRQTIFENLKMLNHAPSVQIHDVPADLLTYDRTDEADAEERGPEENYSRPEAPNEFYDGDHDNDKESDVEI
# Chain of HDAC3 (Q9Y618 395-489 partner limits assumed): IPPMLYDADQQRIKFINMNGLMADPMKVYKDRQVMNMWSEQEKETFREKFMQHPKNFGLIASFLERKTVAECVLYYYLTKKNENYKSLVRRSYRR
# Chain of HDAC1 (Q13547 whole entry): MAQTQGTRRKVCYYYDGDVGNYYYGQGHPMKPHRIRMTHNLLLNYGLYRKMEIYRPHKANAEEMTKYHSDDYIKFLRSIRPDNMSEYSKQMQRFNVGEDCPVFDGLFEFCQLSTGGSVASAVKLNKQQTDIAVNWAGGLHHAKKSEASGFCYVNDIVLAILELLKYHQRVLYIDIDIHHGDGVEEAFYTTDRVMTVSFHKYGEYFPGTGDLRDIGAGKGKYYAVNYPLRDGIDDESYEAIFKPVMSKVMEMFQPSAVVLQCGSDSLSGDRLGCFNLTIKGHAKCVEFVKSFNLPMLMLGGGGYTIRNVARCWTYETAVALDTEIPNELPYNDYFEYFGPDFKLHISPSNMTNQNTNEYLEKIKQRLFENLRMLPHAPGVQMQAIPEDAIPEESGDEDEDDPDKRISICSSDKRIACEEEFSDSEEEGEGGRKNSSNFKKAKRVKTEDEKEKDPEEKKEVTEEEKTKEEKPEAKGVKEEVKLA
# Chain of HDAC2 (Q92769 whole entry): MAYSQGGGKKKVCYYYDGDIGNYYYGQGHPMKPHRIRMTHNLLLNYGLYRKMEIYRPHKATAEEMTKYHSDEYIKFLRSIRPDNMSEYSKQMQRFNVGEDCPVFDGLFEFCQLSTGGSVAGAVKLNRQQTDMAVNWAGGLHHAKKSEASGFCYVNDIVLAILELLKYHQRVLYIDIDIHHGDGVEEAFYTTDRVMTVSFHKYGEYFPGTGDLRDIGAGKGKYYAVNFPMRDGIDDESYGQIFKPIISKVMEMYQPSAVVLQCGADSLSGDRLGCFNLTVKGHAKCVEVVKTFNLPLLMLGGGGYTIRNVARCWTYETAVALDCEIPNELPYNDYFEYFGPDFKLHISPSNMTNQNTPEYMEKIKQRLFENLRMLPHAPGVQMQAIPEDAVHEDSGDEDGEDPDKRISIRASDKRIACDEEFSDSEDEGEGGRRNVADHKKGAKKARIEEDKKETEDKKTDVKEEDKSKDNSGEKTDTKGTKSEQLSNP
compound,measurement,setting,value
"O=C(CCCCCCC(=O)N[c-]1cccc1)NO.[Fe+2].c1cc[cH-]c1 [Compound 7, N^1-Hydroxy-N^8-ferrocenyloctanediamide]",pIC50,[1],7.96
same,pIC50,[2],7.96
same,pIC50,[3],7.74
same,pIC50,[4],9.10
same,cell cycle arrest and cell death,[5],induced cell cycle arrest and cell death
